Measurements from the supplement of paper PMC10627819.

Experiments:
Conditions in all cases: main component drawn
S. aureus DSM 20231 [1] = experiment: Bliss interaction score (quartile over a dose matrix) (fitness difference); higher = more antagonism (negative = synergy)
Method in brief: (§1)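 Fitness was defined as normalised growth: OD595 at the start of stationary phase divided by the plate's robust no-drug mean and capped at 1. Single-drug fitness was inferred from combination measurements. The Bliss score is observed fitness minus the product of the single-drug values, summarised by quartiles across technical, biological and donor/recipient replicates.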

S. aureus Newman [2] = experiment: as above
Method in brief: as §1

B. subtilis 168 = experiment: as above
Method in brief: as §1

S. pneumoniae D39V = experiment: as above
Method in brief: as §1

S. aureus DSM 20231 [3] = experiment: fitness (endpoint OD595 vs no drug) (fraction); higher = more growth
Method in brief: (§2)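 Fitness was measured as bacterial growth in 384-well plates inoculated at OD595 0.01 (30 µl, or 55 µl for S. pneumoniae). Media were TSB, LB Lennox or CY, at 37 °C. OD595 was read every 30 min for 14 h and background-subtracted against the first reading. Fitness is OD595 at the transition into stationary phase divided by the robust mean of no-drug control wells, capped at 1.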

S. aureus Newman [4] = experiment: as above
Method in brief: as §2

[5] = first compound 0.15 µg/mL, partner 0.1562 µg/mL
[6] = first compound 0.15 µg/mL, partner 0.3125 µg/mL
[7] = first compound 0.15 µg/mL, partner 0.625 µg/mL
[8] = first compound 0.3 µg/mL, partner 0.1562 µg/mL
[9] = first compound 0.3 µg/mL, partner 0.3125 µg/mL
[10] = first compound 0.3 µg/mL, partner 0.625 µg/mL
[11] = first compound 0.6 µg/mL, partner 0.1562 µg/mL
[12] = first compound 0.6 µg/mL, partner 0.3125 µg/mL
[13] = first compound 0.6 µg/mL, partner 0.625 µg/mL
[14] = first compound 1 µg/mL, partner 0.1562 µg/mL
[15] = first compound 1 µg/mL, partner 0.3125 µg/mL
[16] = first compound 1 µg/mL, partner 0.625 µg/mL
[17] = first compound 2 µg/mL, partner 0.1562 µg/mL
[18] = first compound 2 µg/mL, partner 0.3125 µg/mL
[19] = first compound 2 µg/mL, partner 0.625 µg/mL
[20] = first compound 4 µg/mL, partner 0.1562 µg/mL
[21] = first compound 4 µg/mL, partner 0.3125 µg/mL
[22] = first compound 4 µg/mL, partner 0.625 µg/mL
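Wherever Bliss interaction score (quartile over a dose matrix) is given: first quartile when negative (synergy) and third quartile when positive (antagonism).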
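Wherever fitness (endpoint OD595 vs no drug) is given: OD595 on entry to stationary phase over no-drug wells; at most 1.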

Compound: CN(N=O)C(=O)N[C@@H](C=O)[C@@H](O)[C@H](O)[C@H](O)CO [Streptozotocin] + CCCCCCCCCC(=O)N[C@@H]1[C@H]([C@@H]([C@H](O[C@H]1OC2=C3C=C4C=C2OC5=C(C=C(C=C5)[C@H]([C@H]6C(=O)N[C@@H](C7=C(C(=CC(=C7)O)OC8[C@H]([C@H]([C@@H]([C@H](O8)CO)O)O)O)C9=C(C=CC(=C9)[C@H](C(=O)N6)NC(=O)[C@@H]4NC(=O)[C@@H]1C2=CC(=CC(=C2)OC2=C(C=CC(=C2)[C@H](C(=O)N[C@H](CC2=CC(=C(O3)C=C2)Cl)C(=O)N1)N)O)O)O)C(=O)O)O[C@H]1[C@@H]([C@H]([C@@H]([C@H](O1)CO)O)O)NC(=O)C)Cl)CO)O)O [Teicoplanin]
- Bliss interaction score (S. aureus DSM 20231 [1]): 0.097
- Bliss interaction score (S. aureus Newman [2]): -0.166
- Bliss interaction score (B. subtilis 168): 0.154
- Bliss interaction score (S. pneumoniae D39V): -0.0829
- fitness (S. aureus DSM 20231 [3]; [5]): 0.801
- fitness (S. aureus DSM 20231 [3]; [6]): 0.935
- fitness (S. aureus DSM 20231 [3]; [7]): ≥ 1
- fitness (S. aureus DSM 20231 [3]; [8]): 0.799
- fitness (S. aureus DSM 20231 [3]; [9]): 0.91
- fitness (S. aureus DSM 20231 [3]; [10]): 0.937
- fitness (S. aureus DSM 20231 [3]; [11]): 0.66
- fitness (S. aureus DSM 20231 [3]; [12]): 0.713
- fitness (S. aureus DSM 20231 [3]; [13]): 0.787
- fitness (S. aureus Newman [4]; [5]): 0.874
- fitness (S. aureus Newman [4]; [6]): 0.762
- fitness (S. aureus Newman [4]; first compound 0.15 µg/mL, partner 0.62 µg/mL, one replicate): 0.661
- fitness (S. aureus Newman [4]; [7]): 0.632
- fitness (S. aureus Newman [4]; first compound 0.15 µg/mL, partner 1.24 µg/mL, one replicate): 0.578
- fitness (S. aureus Newman [4]; first compound 0.15 µg/mL, partner 2.48 µg/mL, one replicate): 0.363
- fitness (S. aureus Newman [4]; [8]): 0.724
- fitness (S. aureus Newman [4]; [9]): 0.656
- fitness (S. aureus Newman [4]; first compound 0.3 µg/mL, partner 0.62 µg/mL, one replicate): 0.47
- fitness (S. aureus Newman [4]; [10]): 0.534
- fitness (S. aureus Newman [4]; first compound 0.3 µg/mL, partner 1.24 µg/mL, one replicate): 0.259
- fitness (S. aureus Newman [4]; first compound 0.3 µg/mL, partner 2.48 µg/mL, one replicate): 0.0725
- fitness (S. aureus Newman [4]; [11]): 0.493
- fitness (S. aureus Newman [4]; [12]): 0.368
- fitness (S. aureus Newman [4]; first compound 0.6 µg/mL, partner 0.62 µg/mL, one replicate): 0.181
- fitness (S. aureus Newman [4]; [13]): 0.177
- fitness (S. aureus Newman [4]; first compound 0.6 µg/mL, partner 1.24 µg/mL, one replicate): 0.0236
- fitness (S. aureus Newman [4]; first compound 0.6 µg/mL, partner 2.48 µg/mL, one replicate): 0.055

Compound: Cc1cc(NS(=O)(=O)c2ccc(N)cc2)no1 [Sulfamethoxazol] + CCCCCCCCCC(=O)N[C@@H]1[C@H]([C@@H]([C@H](O[C@H]1OC2=C3C=C4C=C2OC5=C(C=C(C=C5)[C@H]([C@H]6C(=O)N[C@@H](C7=C(C(=CC(=C7)O)OC8[C@H]([C@H]([C@@H]([C@H](O8)CO)O)O)O)C9=C(C=CC(=C9)[C@H](C(=O)N6)NC(=O)[C@@H]4NC(=O)[C@@H]1C2=CC(=CC(=C2)OC2=C(C=CC(=C2)[C@H](C(=O)N[C@H](CC2=CC(=C(O3)C=C2)Cl)C(=O)N1)N)O)O)O)C(=O)O)O[C@H]1[C@@H]([C@H]([C@@H]([C@H](O1)CO)O)O)NC(=O)C)Cl)CO)O)O [Teicoplanin]
- Bliss interaction score (S. aureus DSM 20231 [1]): 0.0373
- Bliss interaction score (S. aureus Newman [2]): 0.0326
- Bliss interaction score (B. subtilis 168): 0.0811
- Bliss interaction score (S. pneumoniae D39V): -0.0733
- fitness (S. aureus DSM 20231 [3]; [14]): 0.941
- fitness (S. aureus DSM 20231 [3]; [15]): ≥ 1
- fitness (S. aureus DSM 20231 [3]; [16]): ≥ 1
- fitness (S. aureus DSM 20231 [3]; [17]): ≥ 1
- fitness (S. aureus DSM 20231 [3]; [18]): ≥ 1
- fitness (S. aureus DSM 20231 [3]; [19]): ≥ 1
- fitness (S. aureus DSM 20231 [3]; [20]): 0.965
- fitness (S. aureus DSM 20231 [3]; [21]): 0.991
- fitness (S. aureus DSM 20231 [3]; [22]): ≥ 1
- fitness (S. aureus Newman [4]; [14]): ≥ 1
- fitness (S. aureus Newman [4]; [15]): ≥ 1
- fitness (S. aureus Newman [4]; first compound 1 µg/mL, partner 0.62 µg/mL, one replicate): 0.805
- fitness (S. aureus Newman [4]; [16]): ≥ 1
- fitness (S. aureus Newman [4]; first compound 1 µg/mL, partner 1.24 µg/mL, one replicate): 0.726
- fitness (S. aureus Newman [4]; first compound 1 µg/mL, partner 2.48 µg/mL, one replicate): 0.397
- fitness (S. aureus Newman [4]; [17]): ≥ 1
- fitness (S. aureus Newman [4]; [18]): 0.995
- fitness (S. aureus Newman [4]; first compound 2 µg/mL, partner 0.62 µg/mL, one replicate): 0.861
- fitness (S. aureus Newman [4]; [19]): ≥ 1
- fitness (S. aureus Newman [4]; first compound 2 µg/mL, partner 1.24 µg/mL, one replicate): 0.712
- fitness (S. aureus Newman [4]; first compound 2 µg/mL, partner 2.48 µg/mL, one replicate): 0.387
- fitness (S. aureus Newman [4]; [20]): ≥ 1
- fitness (S. aureus Newman [4]; [21]): 0.984
- fitness (S. aureus Newman [4]; first compound 4 µg/mL, partner 0.62 µg/mL, one replicate): 0.788
- fitness (S. aureus Newman [4]; [22]): 0.862
- fitness (S. aureus Newman [4]; first compound 4 µg/mL, partner 1.24 µg/mL, one replicate): 0.724
- fitness (S. aureus Newman [4]; first compound 4 µg/mL, partner 2.48 µg/mL, one replicate): 0.425
- fitness (S. aureus Newman [4]; first compound 8 µg/mL, partner 0.1562 µg/mL, one replicate): 0.963
- fitness (S. aureus Newman [4]; first compound 8 µg/mL, partner 0.3125 µg/mL, one replicate): 0.866
- fitness (S. aureus Newman [4]; first compound 8 µg/mL, partner 0.625 µg/mL, one replicate): 0.997
